Experimental data from US12558428B2, “Heterobifunctional compounds and their use in treating disease” (Halda Therapeutics OpCo, Inc., priority 2024, dated 2026).

How the values were obtained:
Type in all cases: cell-based
[1] = system: T-Rex 293 cells having increased expression of estrogen receptor alpha protein; assay: Cellular growth inhibition assay, T-Rex 293 cells, (+) doxycycline; conditions: T-REx-293, 72 h, Table 7-A; T-Rex 293 cells with doxycycline (increased ERα expression); 72 hours; CellTiter-Glo; read-out: (+) Dox GI50
Summary of the method: (§1)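 Growth of a doxycycline-inducible ERα T-Rex 293 clone, induced or not with 3 ng/mL doxycycline, was followed for 72 h with test compound in hormone-depleted medium. CellTiter-Glo luminescence gave GI50.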

[2] = system: T-Rex 293 cells lacking increased expression of estrogen receptor alpha protein; assay: Cellular growth inhibition assay, T-Rex 293 cells, (−) doxycycline; conditions: T-REx-293, 72 h, Table 7-A; T-Rex 293 cells without doxycycline (lacking increased ERα expression); 72 hours; CellTiter-Glo; read-out: (−) Dox GI50
Summary of the method: as §1

[3] = system: MCF7 cells (ATCC #HTB-22); assay: Cellular growth inhibition assay, MCF7 cells purchased from ATCC; conditions: Homo sapiens, MCF7, 144 h, Table 8-A; MCF7 cells purchased from ATCC; six days; CellTiter-Glo; read-out: GI50
Summary of the method: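 GI50 values come from a four-parameter fit of CellTiter-Glo 2.0 luminescence after six days of compound exposure at 37° C. Seeding density depended on the source: 225 cells/well for ECACC MCF7, 1,500 for ATCC. Medium was RPMI 1640 with 10% FBS and 0.2 U/ml insulin.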

Structure (SMILES)	GI50 [1] [nM]	GI50 [2] [nM]	GI50 [3] [nM]
Cc1sc2c(c1C)C(c1ccc(N3CC4(CC(CN5CCN(c6ccc([C@@H]7c8ccc(O)cc8CC[C@@H]7c7ccccc7)cc6)CC5)C4)C3)cc1)=N[C@@H](C)c1nnc(C)n1-2 [III-243]	< 50	500 to 2500	< 50
Cc1sc2c(c1C)C(c1ccc(N3CCC(O)(CN4CCN(c5cc(F)c([C@@H]6c7ccc(O)cc7CC[C@@H]6c6ccccc6)cc5F)CC4)CC3)cc1)=N[C@@H](C)c1nnc(C)n1-2 [III-246]	< 50	500 to 2500	< 50
Cc1sc2c(c1C)C(c1ccc(N3CCC(O)(CN4CCN(c5cc(F)c([C@H]6c7ccc(O)cc7CC[C@H]6c6ccccc6)cc5F)CC4)CC3)cc1)=N[C@@H](C)c1nnc(C)n1-2 [III-247]	< 50	50 to 500	50 to 500
Cc1sc2c(c1C)C(c1ccc(N3CCC(O)(CN4CCN(c5ccc([C@@H]6c7ccc(O)cc7CC[C@@H]6c6ccc(F)cc6)c(F)c5)CC4)CC3)cc1)=N[C@@H](C)c1nnc(C)n1-2 [III-248]	< 50	500 to 2500	< 50
Cc1sc2c(c1C)C(c1ccc(N3CCC(O)(CN4CCN(c5ccc([C@H]6c7ccc(O)cc7CC[C@H]6c6ccc(F)cc6)c(F)c5)CC4)CC3)cc1)=N[C@@H](C)c1nnc(C)n1-2 [III-249]	50 to 500	500 to 2500	50 to 500
Cc1sc2c(c1C)C(c1ccc(N3CCC(O)(CN4CCN(c5ccc([C@H]6c7ccc(O)cc7CC[C@H]6c6ccc(F)cc6)cc5F)CC4)CC3)cc1)=N[C@@H](C)c1nnc(C)n1-2 [III-250, 4-((4-(2-fluoro-4-((1S,2R)-2-(4-fluorophenyl)-6-hydroxy-1,2,3,4-tetrahydronaphthalen-1-yl)phenyl)piperazin-1-yl)methyl)-1-(4-((S)-2,3,6,9-tetramethyl-6H-thieno[3,2-f][1,2,4]triazolo[4,3-a][1,4]diazepin-4-yl)phenyl)piperidin-4-ol]	50 to 500	50 to 500	50 to 500
Cc1sc2c(c1C)C(c1ccc(N3CCC(O)(CN4CCN(c5ccc([C@@H]6c7ccc(O)cc7CC[C@@H]6c6ccc(F)cc6)cc5F)CC4)CC3)cc1)=N[C@@H](C)c1nnc(C)n1-2 [III-251, 4-((4-(2-fluoro-4-((1R,2S)-2-(4-fluorophenyl)-6-hydroxy-1,2,3,4-tetrahydronaphthalen-1-yl)phenyl)piperazin-1-yl)methyl)-1-(4-((S)-2,3,6,9-tetramethyl-6H-thieno[3,2-f][1,2,4]triazolo[4,3-a][1,4]diazepin-4-yl)phenyl)piperidin-4-ol]	< 50	500 to 2500	< 50
Cc1sc2c(c1C)C(c1ccc(N3CC4(CCC(CN5CCC(c6ccc([C@H]7c8ccc(O)cc8CC[C@H]7c7ccc(F)cc7)cc6)CC5)CC4)C3)cc1)=N[C@@H](C)c1nnc(C)n1-2 [III-252]	50 to 500	500 to 2500	500 to 2500
Cc1sc2c(c1C)C(c1ccc(N3CC4(CCC(CN5CCC(c6ccc([C@@H]7c8ccc(O)cc8CC[C@@H]7c7ccc(F)cc7)cc6)CC5)CC4)C3)cc1)=N[C@@H](C)c1nnc(C)n1-2 [III-253]	< 50	500 to 2500	< 50
COc1cc([C@H]2c3ccc(O)cc3CC[C@H]2c2ccc(F)cc2)ccc1N1CCN(CC2(O)CCN(c3ccc(C4=N[C@@H](C)c5nnc(C)n5-c5sc(C)c(C)c54)cc3)CC2)CC1 [III-254]	< 50	500 to 2500	50 to 500
COc1cc([C@@H]2c3ccc(O)cc3CC[C@@H]2c2ccc(F)cc2)ccc1N1CCN(CC2(O)CCN(c3ccc(C4=N[C@@H](C)c5nnc(C)n5-c5sc(C)c(C)c54)cc3)CC2)CC1 [III-255]	< 50	500 to 2500	50 to 500
Cc1sc2c(c1C)C(c1ccc(N3CCC(O)(CN4CCN(c5cc(F)c([C@@H]6c7ccc(O)cc7CC[C@@H]6c6ccc(F)cc6)cc5F)CC4)CC3)cc1)=N[C@@H](C)c1nnc(C)n1-2 [III-256]	< 50	500 to 2500	< 50
Cc1sc2c(c1C)C(c1ccc(N3CCC(O)(CN4CCN(c5cc(F)c([C@H]6c7ccc(O)cc7CC[C@H]6c6ccc(F)cc6)cc5F)CC4)CC3)cc1)=N[C@@H](C)c1nnc(C)n1-2 [III-257]	50 to 500	500 to 2500	50 to 500
Cc1sc2c(c1C)C(c1ccc(N3CCC(O)(CN4CCN(c5ccc([C@H]6c7ccc(O)cc7CC[C@H]6c6ccc(F)cc6F)cc5)CC4)CC3)cc1)=N[C@@H](Cc1ncco1)c1nnc(C)n1-2 [III-258]	50 to 500	50 to 500	50 to 500
Cc1sc2c(c1C)C(c1ccc(N3CCC(O)(CN4CCN(c5ccc([C@@H]6c7ccc(O)cc7CC[C@@H]6c6ccc(F)cc6F)cc5)CC4)CC3)cc1)=N[C@@H](Cc1ncco1)c1nnc(C)n1-2 [III-259]	< 50	500 to 2500	< 50
Cc1sc2c(c1C)C(c1ccc(C3CN(C[C@H]4C[C@@H](CN5CC(c6ccc([C@@H]7c8ccc(O)cc8CC[C@@H]7c7ccccc7)cc6)C5)C4)C3)cc1)=N[C@@H](C)c1nnc(C)n1-2 [III-260]	< 50	500 to 2500	50 to 500

Structure (SMILES)	GI50 [1] [nM]	GI50 [2] [nM]	GI50 [3] [nM]
Cc1sc2c(c1C)C(c1ccc(C3CN(C[C@H]4C[C@H](CN5CC(c6ccc([C@@H]7c8ccc(O)cc8CC[C@@H]7c7ccccc7)cc6)C5)C4)C3)cc1)=N[C@@H](C)c1nnc(C)n1-2 [III-261]	< 50	500 to 2500	50 to 500
Cc1sc2c(c1C)C(c1ccc(N3CC4(CC(CN5CCN(c6ccc([C@H]7c8ccc(O)cc8CC[C@H]7c7ccc(F)cc7)cc6)CC5)C4)C3)cc1)=N[C@@H](C)c1nnc(C)n1-2 [III-262]	50 to 500	500 to 2500	50 to 500
Cc1sc2c(c1C)C(c1ccc(N3CC4(CC(CN5CCN(c6ccc([C@@H]7c8ccc(O)cc8CC[C@@H]7c7ccc(F)cc7)cc6)CC5)C4)C3)cc1)=N[C@@H](C)c1nnc(C)n1-2 [III-263]	< 50	500 to 2500	< 50
Cc1sc2c(c1C)C(c1ccc(N3CCC(O)(CC4CCN(c5ccc([C@@H]6c7ccc(B(O)O)cc7CC[C@@H]6c6ccccc6)cc5)CC4)CC3)cc1)=N[C@@H](C)c1nnc(C)n1-2 [III-264]	< 50	500 to 2500	< 50
Cc1sc2c(c1C)C(c1ccc(N3CC4(CCC(CN5CCN(c6ccc([C@@H]7c8ccc(O)cc8CC[C@@H]7c7ccccc7)cc6Cl)CC5)CC4)C3)cc1)=N[C@@H](C)c1nnc(C)n1-2 [III-265]	50 to 500	> 2500	50 to 500
Cc1sc2c(c1C)C(c1ccc(N3CC4(CCC(O)(CN5CCN(c6cc(F)c([C@@H]7c8ccc(O)cc8CC[C@@H]7c7ccc(F)cc7)c(F)c6)CC5)CC4)C3)cc1)=N[C@@H](C)c1nnc(C)n1-2 [III-266]	< 50	500 to 2500	< 50
Cc1sc2c(c1C)C(c1ccc(N3CC4(CCC(O)(CN5CCC(c6cc(F)c([C@H]7c8ccc(O)cc8CC[C@H]7c7ccc(F)cc7)c(F)c6)CC5)CC4)C3)cc1)=N[C@@H](C)c1nnc(C)n1-2 [III-267]	50 to 500	> 2500	50 to 500
Cc1sc2c(c1C)C(c1ccc(N3CC4(C3)CC(O)(CN3CCN(c5ccc([C@@H]6c7ccc(O)cc7CC[C@@H]6c6ccccc6)cc5)CC3)C4)cc1)=N[C@@H](C)c1nnc(C)n1-2 [III-268]	< 50	500 to 2500	< 50
Cc1sc2c(c1C)C(c1ccc(N3CCC(O)(CN4CCN(c5ccc([C@H]6c7ccc(O)cc7CC[C@H]6c6ccc(F)c(F)c6)c(F)c5)CC4)CC3)cc1)=N[C@@H](C)c1nnc(C)n1-2 [III-269]	50 to 500	50 to 500	50 to 500
Cc1sc2c(c1C)C(c1ccc(N3CCC(O)(CN4CCN(c5ccc([C@@H]6c7ccc(O)cc7CC[C@@H]6c6ccc(F)c(F)c6)c(F)c5)CC4)CC3)cc1)=N[C@@H](C)c1nnc(C)n1-2 [III-270]	< 50	500 to 2500	50 to 500
Cc1sc2c(c1C)C(c1ccc(N3CCC(O)(CN4CCN(c5ccc([C@H]6c7ccc(O)cc7CC[C@H]6c6cccc(F)c6F)c(F)c5)CC4)CC3)cc1)=N[C@@H](C)c1nnc(C)n1-2 [III-271]	50 to 500	50 to 500	50 to 500
Cc1sc2c(c1C)C(c1ccc(N3CCC(O)(CN4CCN(c5ccc([C@@H]6c7ccc(O)cc7CC[C@@H]6c6cccc(F)c6F)c(F)c5)CC4)CC3)cc1)=N[C@@H](C)c1nnc(C)n1-2 [III-272]	< 50	500 to 2500	< 50
Cc1sc2c(c1C)C(c1ccc(N3CCC(O)(CN4CCN(c5ccc([C@H]6c7ccc(O)cc7CC[C@H]6c6cc(F)ccc6F)c(F)c5)CC4)CC3)cc1)=N[C@@H](C)c1nnc(C)n1-2 [III-273]	50 to 500	50 to 500	50 to 500
Cc1sc2c(c1C)C(c1ccc(N3CCC(O)(CN4CCN(c5ccc([C@@H]6c7ccc(O)cc7CC[C@@H]6c6cc(F)ccc6F)c(F)c5)CC4)CC3)cc1)=N[C@@H](C)c1nnc(C)n1-2 [III-274]	< 50	500 to 2500	< 50
Cc1sc2c(c1C)C(c1ccc(N3CC4(CC(CN5CCN(c6cc(F)c([C@@H]7c8ccc(O)cc8CC[C@@H]7c7ccccc7)c(F)c6)CC5)C4)C3)cc1)=N[C@@H](C)c1nnc(C)n1-2 [III-277]	< 50	500 to 2500	< 50
